{
  "source": "patent US3940426A",
  "about": "“Process for producing biphenyltetracarboxylic dianhydrides” (UBE Industries, Ltd., priority 1972, dated 1976)",
  "key": {"[1]": {"experiment": "Solubility of biphenyltetracarboxylic acid isomers in water or an aqueous solvent", "type": "physicochemical", "conditions": "order among the biphenyltetracarboxylic acid isomers; FIG. 2 in water at varying temperatures", "method": "The solubility was measured by maintaining each of a mixture of 9.35 g of 2,3,3',4'-biphenyltetracarboxylic acid and 10 ml. of water and a mixture of 7.53 g of 3,4,3',4'-biphenyltetracarboxylic acid and 20 ml. of water at a predetermined temperature to dissolve each of the isomers in water, separating the insoluble matter by filtration, drying the filtrate, and weighing it, to thereby obtained the amount of each isomer dissolved at the specified temperature."}, "[2]": {"experiment": "Solubility of biphenyltetracarboxylic dianhydride isomers in aliphatic acid anhydride or ketone", "type": "physicochemical", "conditions": "compared with the 3,4,3',4'-isomer; FIG. 1 in acetic anhydride at varying temperatures", "method": "Referring to FIG. 1, the ordinate represents the solubility (g/acetic anhydride: 10 ml.) and the abscissa the temperature in °C. The measurement of the solubility was performed by maintaining separate mixtures of 2.5 g of the 2,3,3',4'-isomer and 5 ml. of acetic anhydride and a mixture of 1 g of the 3,4,3',4'-isomer and 20 ml. of acetic anhydride at a predetermined temperature to dissolve each of the isomers in the acetic anhydride, separating the insoluble matter by filtration, drying the filtrate and weighing it, to thereby obtain the amount of the isomer dissolved in […] at the specified temperature."}},
  "data": [
    {"smiles": "O=C(O)c1cccc(-c2cccc(C(=O)O)c2C(=O)O)c1C(=O)O", "note": "[2,3,2',3'-isomer, 2,3,2',3'-biphenyltetracarboxylic acid]", "values": [
      {"measurement": "solubility in water or in an aqueous solvent", "setting": "[1]", "result": "largest solubility in water or in an aqueous solvent"}
    ]},
    {"smiles": "O=C(O)c1ccc(-c2cccc(C(=O)O)c2C(=O)O)cc1C(=O)O", "note": "[2,3,3',4'-biphenyltetracarboxylic acid]", "values": [
      {"measurement": "solubility in water or in an aqueous solvent", "setting": "[1]", "result": "followed by the 2,3,3',4'-isomer"}
    ]},
    {"smiles": "O=C1OC(=O)c2cc(-c3cccc4c3C(=O)OC4=O)ccc21", "note": "[2,3,3',4'-biphenyltetracarboxylic dianhydride]", "values": [
      {"measurement": "solubility in an aliphatic acid anhydride or ketone", "setting": "[2]", "result": "more soluble in an aliphatic acid anhydride or ketone than the 3,4,3',4'-isomer"}
    ]},
    {"smiles": "O=C(O)c1ccc(-c2ccc(C(=O)O)c(C(=O)O)c2)cc1C(=O)O", "note": "[3,4,3',4'-biphenyltetracarboxylic acid]", "values": [
      {"measurement": "solubility in water or in an aqueous solvent", "setting": "[1]", "result": "the 3,4,3',4'-isomer in order of decreasing solubility"}
    ]}
  ]
}
